Assays:
[1] = biological target: T1, His tagged PTPN2 (TC45) protein (Homo sapiens, UniProt P17706); experiment: Mobility shift assay (MSA) to determine potency of PTPN2 inhibitors; type: biochemical; details: 0.5 nM enzyme, 2 μM substrate
T1 construct: made in house
T1 sequence (P17706 with tags, fused parts or gaps isoform P17706-2): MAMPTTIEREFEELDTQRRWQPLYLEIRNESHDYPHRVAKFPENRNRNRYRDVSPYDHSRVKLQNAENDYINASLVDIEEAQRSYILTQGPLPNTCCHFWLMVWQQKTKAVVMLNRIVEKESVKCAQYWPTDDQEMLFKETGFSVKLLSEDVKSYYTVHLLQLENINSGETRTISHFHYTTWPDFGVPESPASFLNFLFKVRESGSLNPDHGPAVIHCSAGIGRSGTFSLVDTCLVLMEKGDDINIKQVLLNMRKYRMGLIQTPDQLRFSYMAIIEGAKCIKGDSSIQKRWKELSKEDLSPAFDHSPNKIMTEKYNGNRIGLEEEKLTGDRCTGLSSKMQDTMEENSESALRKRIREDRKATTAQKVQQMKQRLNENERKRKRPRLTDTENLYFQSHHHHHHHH
How it was run: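 His-tagged human PTPN2 (TC45), 0.5 nM, preincubated 10 min at room temperature with compound (12-point, 1:3 dilutions) in HEPES pH 7.5 buffer with EGTA, EDTA, Tween 20 and DTT. Then 2 μM OG488-labelled phospho-insulin-receptor peptide was added for 10 min and quenched. % conversion was read by mobility shift, and IC50 came from % inhibition.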

[2] = biological target: T2, His tagged full-length PTPN1 protein (Homo sapiens, UniProt P18031); experiment: Mobility shift assay (MSA) to determine potency of PTPN1 inhibitors; type: biochemical; details: 0.5 nM enzyme, 2 μM substrate
T2 construct: made in house
T2 sequence (P18031 with tags, fused parts or gaps): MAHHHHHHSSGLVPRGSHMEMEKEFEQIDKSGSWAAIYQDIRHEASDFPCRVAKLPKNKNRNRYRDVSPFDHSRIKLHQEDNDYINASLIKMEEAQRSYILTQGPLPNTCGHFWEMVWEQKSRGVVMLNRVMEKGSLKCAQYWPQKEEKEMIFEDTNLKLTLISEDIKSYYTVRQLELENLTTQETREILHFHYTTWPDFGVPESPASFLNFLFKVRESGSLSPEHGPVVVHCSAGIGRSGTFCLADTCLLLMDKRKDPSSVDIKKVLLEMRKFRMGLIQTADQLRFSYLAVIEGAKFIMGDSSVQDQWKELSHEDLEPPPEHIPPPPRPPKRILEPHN
How it was run: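 His-tagged full-length human PTPN1 (0.5 nM) preincubated with compound 10 min at room temperature in pH 7.5 HEPES buffer with EGTA, EDTA, Tween 20 and DTT. Dephosphorylation of 2 μM fluorescent phospho-insulin-receptor peptide over 10 min measured by mobility shift. IC50 from % inhibition across a 12-point, 1:3 dilution series.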

Structure (SMILES)	IC50 [2] [µM]	IC50 [1] [µM]
CC(C)C1CN(C2CCc3cc(O)c(N4CC(=O)NS4(=O)=O)c(F)c3C2)CCO1 (centres unmarked) [Compound 181]	0.001 to 0.01	0.001 to 0.01
CCCCNCC1CCc2cc(O)c(N3CC(=O)NS3(=O)=O)c(F)c2C1 (centres unmarked) [Compound 396, 5-{7-[(butylamino)methyl]-1-fluoro-3-hydroxy-5,6,7,8-tetrahydronaphthalen-2-yl}-1λ^6,2,5-thiadiazolidine-1,1,3-trione]	0.01 to 0.1	0.01 to 0.1
Cn1cc(CCN2CCc3cc(O)c(N4CC(=O)NS4(=O)=O)c(F)c3C2)cn1 [Compound 252]	> 0.1	> 0.1
CC(C)OCCN1CCc2cc(O)c(N3CC(=O)NS3(=O)=O)c(F)c2C1 [Compound 233]	0.01 to 0.1	> 0.1
O=C1CN(c2c(O)cc3c(c2F)CN(C(=O)NCC2CC2)CC3)S(=O)(=O)N1 [Compound 258]	0.001 to 0.01	0.001 to 0.01
O=C1CN(c2c(O)cc3c(c2F)CC(NCCC2COC2)CC3)S(=O)(=O)N1 (centres unmarked) [Compound 330, 5-(1-fluoro-3-hydroxy-7-{[2-(oxetan-3-yl)ethyl]amino}-5,6,7,8-tetrahydronaphthalen-2-yl)-1λ^6,2,5-thiadiazolidine-1,1,3-trione]	> 0.1	> 0.1
CC(C)CCS(=O)(=O)NC1CCc2cc(O)c(N3CC(=O)NS3(=O)=O)c(F)c2C1 (centres unmarked) [Compound 332, N-[8-fluoro-6-hydroxy-7-(1,1,4-trioxo-1λ^6,2,5-thiadiazolidin-2-yl)-1,2,3,4-tetrahydronaphthalen-2-yl]-3-methylbutane-1-sulfonamide]	0.01 to 0.1	0.01 to 0.1
Cc1c(CNC(=O)N2CCc3cc(O)c(N4CC(=O)NS4(=O)=O)c(F)c3C2)cnn1C [Compound 271]	0.01 to 0.1	0.01 to 0.1
O=C1CN(c2c(O)cc3c(c2F)CN(CCC2CC(F)(F)C2)CC3)S(=O)(=O)N1 [Compound 192]	0.01 to 0.1	0.01 to 0.1
O=C1CN(c2c(O)cc3c(c2F)CN(C(=O)NCCc2ccccc2)CC3)S(=O)(=O)N1 [Compound 284]	0.01 to 0.1	0.01 to 0.1
Cc1nn(C)c(C)c1CN1CC(N2CCc3cc(O)c(N4CC(=O)NS4(=O)=O)c(F)c3C2)C1 [Compound 224]	0.01 to 0.1	> 0.1
O=C1CC[C@@H](CN2CCc3cc(O)c(N4CC(=O)NS4(=O)=O)c(F)c3C2)N1 [Compound 324]	0.01 to 0.1	0.001 to 0.01
CC(C)CNCC1(O)CCc2cc(O)c(N3CC(=O)NS3(=O)=O)c(F)c2C1 (centres unmarked) [Compound 339, 5-(1-fluoro-3,7-dihydroxy-7-{[(2-methylpropyl)amino]methyl}-5,6,7,8-tetrahydronaphthalen-2-yl)-1λ^6,2,5-thiadiazolidine-1,1,3-trione]	0.01 to 0.1	0.01 to 0.1
O=C1CN(c2c(O)cc3c(c2F)CN(C(=O)NCC2CCCCC2)CC3)S(=O)(=O)N1 [Compound 321]	0.001 to 0.01	0.001 to 0.01
CC(C)CCNCC1CCc2cc(O)c(N3CC(=O)NS3(=O)=O)c(F)c2C1 (centres unmarked) [Compound 390, 5-(1-fluoro-3-hydroxy-7-{[(3-methylbutyl)amino]methyl}-5,6,7,8-tetrahydronaphthalen-2-yl)-1λ^6,2,5-thiadiazolidine-1,1,3-trione]	0.01 to 0.1	0.01 to 0.1
COCCCN1CCc2cc(O)c(N3CC(=O)NS3(=O)=O)c(F)c2C1 [Compound 217]	> 0.1	> 0.1
N[C@@H]1CCc2cc(O)c(N3CC(=O)NS3(=O)=O)c(F)c2[C@H]1O [Compound 401, 5-[(7R,8R)-7-amino-1-fluoro-3,8-dihydroxy-5,6,7,8-tetrahydronaphthalen-2-yl]-1λ^6,2,5-thiadiazolidine-1,1,3-trione]	> 0.1	> 0.1
N[C@@H]1CCc2cc(O)c(N3CC(=O)NS3(=O)=O)c(F)c2C1 [Compound 198]	> 0.1	0.01 to 0.1

Further lines, with some results ahead:

IC50 [2] [µM]	Structure (SMILES)	IC50 [1] [µM]
0.001 to 0.01	CC(C)CCN[C@H]1Cc2c(cc(O)c(N3CC(=O)NS3(=O)=O)c2F)C[C@H]1O [Compound 393, 5-{(6R,7S)-1-fluoro-3,6-dihydroxy-7-[(3-methylbutyl)amino]-5,6,7,8-tetrahydronaphthalen-2-yl}-1λ^6,2,5-thiadiazolidine-1,1,3-trione]	0.001 to 0.01
0.01 to 0.1	O=C1CN(c2c(O)cc3c(c2F)CN(CC2CC4(CC4)C2)CC3)S(=O)(=O)N1 [Compound 168]	0.01 to 0.1
0.01 to 0.1	Cn1cccc1CN[C@@H]1CCc2cc(O)c(N3CC(=O)NS3(=O)=O)c(F)c2C1 [Compound 345, 5-[(7R)-1-fluoro-3-hydroxy-7-{[(1-methyl-1H-pyrrol-2-yl)methyl]amino}-5,6,7,8-tetrahydronaphthalen-2-yl]-1λ^6,2,5-thiadiazolidine-1,1,3-trione]	0.01 to 0.1
> 0.1	O=C1CN(c2c(O)cc3c(c2F)C(=O)NCC3)S(=O)(=O)N1 [Compound 388, 5-(8-fluoro-6-hydroxy-1-oxo-1,2,3,4-tetrahydroisoquinolin-7-yl)-1λ^6,2,5-thiadiazolidine-1,1,3-trione]	> 0.1
0.01 to 0.1	NCC1(O)CCc2cc(O)c(N3CC(=O)NS3(=O)=O)c(F)c2C1 (centres unmarked) [Compound 337, 5-[7-(aminomethyl)-1-fluoro-3,7-dihydroxy-5,6,7,8-tetrahydronaphthalen-2-yl]-1λ^6,2,5-thiadiazolidine-1,1,3-trione]	0.01 to 0.1
0.01 to 0.1	CCCCCN1CCc2cc(O)c(N3CC(=O)NS3(=O)=O)c(F)c2C1 [Compound 298]	0.01 to 0.1
> 0.1	[2H]C1([2H])Cc2cc(O)c(N3CC(=O)NS3(=O)=O)c(F)c2C([2H])([2H])[C@@]1([2H])NCCC(C)C (single isomer, unassigned) [Compound 370]	0.01 to 0.1
0.01 to 0.1	COCCNC(=O)N1CCc2cc(O)c(N3CC(=O)NS3(=O)=O)c(F)c2C1 [Compound 282]	0.01 to 0.1
0.001 to 0.01	O=C1CN(c2c(O)cc3c(c2F)C[C@H](NCC2CCCOC2)CC3)S(=O)(=O)N1 (stereo partly drawn) [Compound 352, 5-[(7R)-1-fluoro-3-hydroxy-7-{[(oxan-3-yl)methyl]amino}-5,6,7,8-tetrahydronaphthalen-2-yl]-1λ^6,2,5-thiadiazolidine-1,1,3-trione]	0.001 to 0.01
0.01 to 0.1	NCC1CCc2cc(O)c(N3CC(=O)NS3(=O)=O)c(F)c2C1 (centres unmarked) [Compound 389, 5-[7-(aminomethyl)-1-fluoro-3-hydroxy-5,6,7,8-tetrahydronaphthalen-2-yl]-1λ^6,2,5-thiadiazolidine-1,1,3-trione]	0.01 to 0.1
0.01 to 0.1	O=C1CN(c2c(O)cc3c(c2F)C[C@H](NCCCc2ccccc2)CO3)S(=O)(=O)N1 [Compound 386, 5-{(3S)-5-fluoro-7-hydroxy-3-[(3-phenylpropyl)amino]-3,4-dihydro-2H-1-benzopyran-6-yl}-1λ^6,2,5-thiadiazolidine-1,1,3-trione]	0.01 to 0.1
0.01 to 0.1	O=C1CN(c2c(O)cc3c(c2F)C[C@H](NCc2ccc(CO)o2)CC3)S(=O)(=O)N1 [Compound 359, 5-[(7R)-1-fluoro-3-hydroxy-7-({[5-(hydroxymethyl)furan-2-yl]methyl}amino)-5,6,7,8-tetrahydronaphthalen-2-yl]-1λ^6,2,5-thiadiazolidine-1,1,3-trione]	0.01 to 0.1
0.01 to 0.1	CC(C)CNS(=O)(=O)N1CCc2cc(O)c(N3CC(=O)NS3(=O)=O)c(F)c2C1 [Compound 328, 8-fluoro-6-hydroxy-N-(2-methylpropyl)-7-(1,1,4-trioxo-1λ^6,2,5-thiadiazolidin-2-yl)-3,4-dihydroisoquinoline-2(1H)-sulfonamide]	0.01 to 0.1
0.01 to 0.1	O=C1CN(c2c(O)cc3c(c2F)CC(CNCCCC2CC2)CC3)S(=O)(=O)N1 (centres unmarked) [Compound 394, 5-(7-{[(3-cyclopropylpropyl)amino]methyl}-1-fluoro-3-hydroxy-5,6,7,8-tetrahydronaphthalen-2-yl)-1λ^6,2,5-thiadiazolidine-1,1,3-trione]	0.01 to 0.1
0.001 to 0.01	NCC1(CCN[C@@H]2CCc3cc(O)c(N4CC(=O)NS4(=O)=O)c(F)c3C2)CCC1 [Compound 376, 5-[(7R)-7-({2-[1-(aminomethyl)cyclobutyl]ethyl}amino)-1-fluoro-3-hydroxy-5,6,7,8-tetrahydronaphthalen-2-yl]-1λ^6,2,5-thiadiazolidine-1,1,3-trione]	< 0.001
> 0.1	CC1(C)CCc2cc(O)c(N3CC(=O)NS3(=O)=O)c(F)c2O1 [Compound 113]	> 0.1

From patent US20250122160A1, “PROTEIN TYROSINE PHOSPHATASE INHIBITORS AND METHODS OF USE THEREOF” (Calico Life Sciences LLC, priority 0001, published 2025)
